In a melting point compilation (Tetko et al.; mined from patent text by program, amines drawn as free bases though some values may be those of a salt):

| SMILES | melting point |
| --- | --- |
| CN(C)c1ccc(C(=O)c2cccc(N)c2)cc1 | 110 °C |
| CC(C)c1cc(C(C)C)c2ncn(/C=C/C(=O)O)c(=O)c2c1 | 181 to 182 °C |
| CCOC(=O)CCn1c(C(=O)NC(N)=S)cc2ccccc21 | 160 to 162 °C |
| O=C1c2ccc3c4cccc5cccc(c6ccc(c2c36)C(=O)N1CCCCCO)c54 | 274 to 276 °C |
| CC1=C(C(=O)NC(C)(C)C)C(c2ccccc2Cl)C(C(=O)NC(C)C)=C(COCCn2c(C)nc3ccccc32)N1 (centres undefined) | 191 to 193 °C |
| COc1ccc2c(c1)CCN2c1cccc(C#N)c1 | 92.5 to 93.5 °C |
| CCCCCCCCCCCCCCCCOc1cc(CO)cc(CO)c1 | 90 °C |
| O=C(c1ccc(-c2ccc(=O)n(-c3ccc(F)cc3)n2)cc1)N1CCC[C@H]1CN1CCCC1 | 177 °C |
| O=C(Nc1cc[nH]c(=O)n1)OCc1ccccc1 | > 250 °C |
| Cc1nccn1-c1ccc(-c2cnc([C@H](Cc3ccccn3)N(C=O)c3cc4ccccc4o3)n2C)cc1 | 167 to 171 °C |
| O=c1c2ccccc2oc2c(C3CCCCC3)cccc12 | 122 to 124 °C |
| Cc1nnc(OC[C@H]2CN(c3ccc(C4=CCOCC4)c(F)c3)C(=O)O2)o1 | 146 to 147 °C |
| Fc1ccc(-c2nc3ccc(OC(F)(F)F)cc3[nH]2)cc1 | 158 to 160 °C |
| c1ccc(C2CCNC3=NCCN32)cc1 (centres undefined) | 146 °C |
| CC(CC(=O)O)C(=O)c1ccc2c(c1)OCC(=O)N2 (centres undefined) | 170 to 172 °C |
| N#Cc1nn(-c2c(Cl)cc(C(F)(F)F)cc2Cl)c(NCc2ccccn2)c1SC(F)F | 117 to 120 °C |
| c1coc(-c2nnc(Sc3cnccn3)o2)c1 | 92 to 93 °C |
| COc1cc(C(=O)NC2OCC(c3ccccc3)N3CCCCC23)cc(OC)c1OC (centres undefined) | 126 to 128 °C |
| CCCC(=O)OCn1cc(F)c(=O)[nH]c1=O | 96 to 98 °C |
| COC(=O)CCCc1cc2cc(Cl)ccc2n1S(=O)(=O)c1ccc2c(c1)CCC(=O)N2 | 198 to 205 °C |
| N#Cc1ccc([C@@H]2CNC[C@@]23NC(=O)N(c2cc(Cl)cc(Cl)c2)C3=O)cc1 (relative stereo) | 198 °C |
| CC(C)(C)OC(=O)N[C@H](Cc1ccc(Cl)c(Cl)c1)C(=O)N1CCC[C@H]1C(=O)NC1CCc2nc(N)ncc2C1 (some centres undefined) | 114 to 117 °C |
| CCOC(=O)/C=C1\OC(=O)c2ccccc21 | 132 to 134 °C |
| CC(=O)NC1(Cc2ccccc2)CCN(Cc2ccccc2)CC1 | 134 °C |
| CCOc1cc2ncc(C#N)c(Nc3ccc4c(c3)OCCO4)c2cc1OCC | 225 to 227 °C |

| SMILES | melting point |
| --- | --- |
| CC(C)[C@H](NC(=O)N(C)Cc1nc2ccccc2[nH]1)C(=O)N[C@@H](Cc1ccccc1)[C@@H](O)C[C@H](Cc1ccccc1)NC(=O)OCc1cccnc1 | 110 to 114 °C |
| COC(=O)c1ccc(CN(CC2CCOCC2)S(=O)(=O)c2ccc(Cl)cc2)cc1 | 115 to 117 °C |
| CN1C(=O)N(CCC(=O)O)C(C)(C)C1=O | 103 °C |
| Cc1cc(N(C)c2ccn(-c3ccccc3)n2)cc(C)c1O | 139 to 140 °C |
| CCCNC(Nc1cc(C(F)(F)F)cc(C(F)(F)F)c1)=C(C#N)S(=O)(=O)c1ccc(Cl)cc1 | 196 to 198 °C |
| Cc1ccccc1-c1cc(N2CCC(O)CC2)ncc1C(=O)N(C)Cc1cc(C(F)(F)F)cc(C(F)(F)F)c1 | 150 to 152 °C |
| COC=C(C#N)Cc1ccc(OC)c(OC)c1 | 64 to 65 °C |
| CC(=O)N(NC(=O)c1ccccc1)[C@@H]1c2cc(C#N)ccc2OC(C)(C)[C@H]1O (relative stereo) | 212 to 213 °C |
| CN1CCN(C(=O)C(c2ccc(Cl)cc2)c2c(Cl)cc(-n3ncc(=O)[nH]c3=O)cc2Cl)CC1 (centres undefined) | 262 °C |
| Cn1cc(-c2cc(-c3cnc4[nH]ccc4c3)ccn2)n(-c2ccc(CC#N)cc2)c1=O | 252 °C |
| N#Cc1ccc(Cn2c(=O)sc3c(=O)[nH]c(N)nc32)cc1 | > 320 °C |
| CCCCCCCCCNC(=O)CCC(=O)OO | 85 to 91 °C |
| COc1ccc(C2(O)OC(=O)C(c3cc(OC)c4c(c3)OCO4)=C2CC2CCCC2)cc1 (centres undefined) | 139 to 140 °C |
| C#Cc1ccc(OC)c(OCC)c1 | 95 to 96 °C |
| COc1ccc(C2=NNC(=O)[C@H]3CC=CC[C@@H]23)cc1Cl (relative stereo) | 183 to 185 °C |
| OCCCc1ccc2ccccc2c1OCc1ccccc1 | 80 to 81 °C |
| Cc1ccc2sc3cc(C(=O)O)ccc3c(=O)c2c1 | > 250 °C |
| CC(C)(C)C(O)(Cn1cncn1)C(Br)=C(Cl)Br (centres undefined) | 78 to 81 °C |
| c1ccc2c(c1)CNc1ccccc1O2 | 74 to 76 °C |
| Cc1ccc2oc(=O)c(C(=O)Oc3cccc4cnccc34)cc2c1 | 188 to 190 °C |
| O=C1Nc2ccc(C#CCCN3CCC(Cc4ccccc4)CC3)cc2C1=O | 140 to 141 °C |
| O=C(O)c1ccc(OCC(O)CO)cc1O (centres undefined) | 151 to 153 °C |
| CN1CCN(c2ccccc2C=C2CCN(c3ccc(Cl)c(Cl)c3)C2=O)CC1 | 177 to 179 °C |
| CCCN(CCC)CCCC1CCN(CCNC(=O)N2c3ccccc3C(=O)Nc3cccnc32)CC1 | 169 to 170 °C |
| Cc1cccc(NC(=O)NCC(=O)N(CC(=O)OC(C)(C)C)c2ccccc2C(=O)N(C)c2ccccc2)c1 | 145 °C |

| SMILES | melting point |
| --- | --- |
| COc1cc(-c2cc(C(F)(F)F)nn2-c2ccc(S(C)(=O)=O)cc2)ccc1-c1cocn1 | 171 to 173 °C |
| CN(C)CC#CCNC(=O)/C=C\C(=O)O | 155 to 157 °C |
| CC(=O)N1CCN(c2ccc(F)cc2O)CC1 | 183 to 185 °C |
| O=C(C=c1sc2n(c1=O)Cc1ccccc1N=2)Oc1ccccc1 | 194 to 195 °C |
| Cc1ccccc1N=C(C#N)c1c(Cl)cccc1Cl | 55 °C |
| CC(C(=O)c1ccc2c(c1)CC(=O)N2)N1CCC(O)(Cc2ccccc2)CC1 (centres undefined) | 188 to 192 °C |
| O=Cc1cn(Cc2ccc(OCc3csc(-c4ccccc4)n3)cc2)nc1-c1cccs1 | 115 to 116 °C |
| Cc1c(F)cccc1CC(=Cc1ccccc1)[N+](=O)[O-] | 111 to 112 °C |
| NC(=S)c1ccc(C(=O)NCc2ccc(N3CC(C(=O)O)OC3=O)cc2)cc1 (centres undefined) | 105 to 110 °C |
| CCOc1cc2c(cc1OC)Cc1c([nH]cnc1=O)N2 | 318 to 320 °C |
| O=C1COC(c2ccccc2)c2ccccc2N1 (centres undefined) | 193 to 195 °C |
| CN1CCCN=C1C(Br)(Br)[N+](=O)[O-] | 106 to 107 °C |
| CC(CCC(=O)O)(Sc1cc(C(C)(C)C)c(O)c(C(C)(C)C)c1)Sc1cc(C(C)(C)C)c(O)c(C(C)(C)C)c1 | 90 to 92 °C |
| COc1cc(C#N)cc2cc(CO)oc12 | 149 to 150 °C |
| O=C1C=CC=C2CN=CC=C12 | 232 to 234 °C |
| CCCN1CCCC1CNS(=O)(=O)c1ccc(Nc2ccnc3cc(Cl)ccc23)cc1 (centres undefined) | 192 to 194 °C |
| OCCNCCCCCCNCCO | 75 to 79 °C |
| CCOc1ccc(OCc2ccccc2OCc2nc(-c3ccccc3)oc2C)cc1CCC(=O)O | 146 to 147 °C |
| COC(=O)Cc1ccc2nc(Nc3ccccc3C)oc2c1 | 128 to 129 °C |
| Nc1c(C#Cc2ccccc2)cnnc1C1CN2CCNC1CC2 (centres undefined) | 182 to 183 °C |
| CCN1C(=O)C(C)(C)C(=O)N(C)c2cc(CN(CCn3ccc4oc(C)cc4c3=O)Cc3cccnc3)ccc21 | 124 to 127 °C |
| CCOc1ccc([N+](=O)[O-])nc1C | 82 to 84 °C |
| CCn1nnc(C(CO)=C(c2ccc(F)cc2)c2ccc(F)cc2)n1 | 82 to 84 °C |
| CCc1nc2c(C)cc(C)nc2n1Cc1ccc2c(c1)CCc1ccccc1N2Cc1ccccc1C#N | 133 to 135 °C |
| CC(C)SC1CCC(=O)N1 (centres undefined) | 77 to 79 °C |

| SMILES | melting point |
| --- | --- |
| O=C(O)c1ccccc1CCc1cccc(Br)c1 | 88 to 90 °C |
| CC(=O)N1CCc2ccc(C(=O)c3ccccc3)cc2C1 | 110 to 113 °C |
| COCCc1nc2c(N)nc3ccccc3c2n1CCC(=O)N1CCOCC1 | 125 to 126 °C |
| O=c1[nH]c2cc(Cl)ccc2c(O)c1Sc1ccc(O)cc1 | > 300 °C |
| CC(=O)CC1CC2CN(C(=O)c3ccccc3)c3cccc(c32)C1=O (centres undefined) | 117 to 119 °C |
| Cc1nc(C)nc(NC(=O)NS(=O)(=O)c2ccccc2Cl)n1 | 115 to 118 °C |
| COc1ccccc1-c1c(NC(=O)OC(C)(C)C)oc(=O)c2ccccc12 | 203 to 205 °C |
| Cc1cc(C)c2c(c1)OC(=O)C2c1ccc(C(C)C)cc1 (centres undefined) | 76 to 77 °C |
| COC(=O)COc1ccc(C(=O)Nc2ccccc2Sc2ccccc2-c2nnn[nH]2)cc1 | 204 to 205 °C |
| CN(C)C(=O)c1c(-c2ccccc2F)ccc2ccccc12 | 105 to 106 °C |
| CCCCCCCCCc1ccc(S(N)(=O)=O)cc1 | 94.5 to 95.2 °C |
| O=c1ncc(Cl)cn1COCc1ccccc1 | 125 °C |
| O=C(O)C1=Cc2cc(Cl)cc(C#CCCCCl)c2OC1C(F)(F)F (centres undefined) | 154 to 156 °C |
| CSc1ccc(-n2cnc3ccc(-c4nnc(CCc5cccc(C(F)(F)F)c5)o4)cc32)cc1 | 167 to 168 °C |
| COC(=O)C1(C(N)=O)OC1c1ccccc1 (centres undefined) | 175 to 177 °C |
| O=C(N[C@H](Cc1ccc(CC(F)(F)C(F)(F)F)cc1)[C@@H](O)c1cccc(Cl)c1)c1ccc(F)c2ccccc12 (racemic) | 191 to 192 °C |
| CC(C)n1nc(-c2nc(C#N)c(N)nc2-c2ccccc2)ccc1=O | 231 to 233 °C |
| C[C@](O)(CBr)C(=O)Nc1ccc([N+](=O)[O-])c(C(F)(F)F)c1 | 70 to 74 °C |
| COc1cc2occ(C(=O)Nc3cccnc3)c2cc1C(F)(F)F | 219 to 221 °C |
| O=c1[nH]c(=O)n(CCCCCl)c2ccccc12 | 127 to 128 °C |
| CCCCc1nn(-c2cc(NC(=O)CC)ccc2Cl)c(=O)n1Cc1ccc(-c2ccccc2S(=O)(=O)NC(=O)c2ccccc2Cl)cc1F | > 152 °C |
| COc1cc(Cc2cnc(NCCSCc3csc(CN(C)C)n3)[nH]c2=O)ccn1 | 79 to 80 °C |
| CC1CC(=NNc2ccccc2)c2ncc(C(=O)O)c(=O)n2C1 (centres undefined) | 255 to 256 °C |
| CC(C)c1[nH]nc2c1C(=O)c1c(NC(N)=O)cccc1-2 | > 250 °C |
